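Results reflect a 48-hour exposure of cells in 96-well plates to compound at five concentrations. GI50 is the concentration that inhibits growth by half.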 Activity calls are given as the source filed them. No stated cut-off is given here; in the data, active = GI50 up to about 1.1 µM and inactive = higher.
Tests used:
Assay in all cases: inhibition of tumour cell growth, NCI panel, 48 h
SR = test system: SR
TK-10 = test system: TK-10
EKVX = test system: EKVX
UO-31 = test system: UO-31
NCI-H226 = test system: NCI-H226
HL-60 = test system: HL-60
SK-MEL-2 = test system: SK-MEL-2
HOP-62 = test system: HOP-62
MOLT-4 = test system: MOLT-4
NCI-H23 = test system: NCI-H23
A498 = test system: A498
K562 = test system: K562
ACHN = test system: ACHN
UACC-62 = test system: UACC-62
SNB-19 = test system: SNB-19
COLO 205 = test system: COLO 205

Row | Structure (SMILES) | GI50 (SR) | GI50 (TK-10) | GI50 (EKVX) | GI50 (UO-31) | GI50 (NCI-H226) | GI50 (HL-60) | GI50 (SK-MEL-2) | GI50 (HOP-62) | GI50 (MOLT-4) | GI50 (NCI-H23) | GI50 (A498) | GI50 (K562) | GI50 (ACHN) | GI50 (UACC-62) | GI50 (SNB-19) | GI50 (COLO 205)
1 | CC(=O)CNC(=O)OC(C)(C)C | > 100 µM (inactive) | > 100 µM (inactive) | > 100 µM (inactive) | > 100 µM (inactive) | > 100 µM (inactive) | > 100 µM (inactive) | > 100 µM (inactive) | > 100 µM (inactive) | > 100 µM (inactive) | > 100 µM (inactive) | > 100 µM (inactive) | > 100 µM (inactive) | > 100 µM (inactive) | > 100 µM (inactive) | > 100 µM (inactive) | –
2 | C1OC1CO[C@@H]1CO[C@H]2[C@@H]1OC[C@H]2OCC1CO1 (some centres not stated) | 89.5 µM (inactive) | > 100 µM (inactive) | > 100 µM (inactive) | > 100 µM (inactive) | > 100 µM (inactive) | 82.8 µM (inactive) | > 100 µM (inactive) | > 100 µM (inactive) | 78.2 µM (inactive) | > 100 µM (inactive) | > 100 µM (inactive) | > 100 µM (inactive) | 73.1 µM (inactive) | > 100 µM (inactive) | > 100 µM (inactive) | > 100 µM (inactive)
3 | CC(=O)/C=C/c1cccc(N=S)c1 | 7.78 µM (inactive) | > 52.8 µM (inactive) | > 40.8 µM (inactive) | 39.4 µM (inactive) | 46 µM (inactive) | 5.79 µM (inactive) | – | > 63.5 µM (inactive) | > 40.1 µM (inactive) | 30.7 µM (inactive) | 27 µM (inactive) | 4.62 µM (inactive) | > 38.4 µM (inactive) | 21.6 µM (inactive) | > 43.2 µM (inactive) | 20.1 µM (inactive)
4 | COc1cc(C=O)c(-c2cc3c(cc2C2(C)OCCS2)OCO3)c(OC)c1OC (configuration not stated) | 14.1 µM (inactive) | 57.8 µM (inactive) | 19.7 µM (inactive) | 14.1 µM (inactive) | 6.32 µM (inactive) | 8.07 µM (inactive) | 11.4 µM (inactive) | 15.5 µM (inactive) | 12.5 µM (inactive) | 21.9 µM (inactive) | 7.85 µM (inactive) | 8.83 µM (inactive) | 18.5 µM (inactive) | 12.6 µM (inactive) | 30.2 µM (inactive) | 4.24 µM (inactive)
5 | COc1ccc(-c2nc3c(nc2-c2ccc(OC)cc2)C(N)=NS(=O)(=O)N3)cc1 | – | > 100 µM (inactive) | > 100 µM (inactive) | > 100 µM (inactive) | > 100 µM (inactive) | > 100 µM (inactive) | > 100 µM (inactive) | > 100 µM (inactive) | > 100 µM (inactive) | > 100 µM (inactive) | > 100 µM (inactive) | > 100 µM (inactive) | > 100 µM (inactive) | > 100 µM (inactive) | > 100 µM (inactive) | > 100 µM (inactive)
6 | CCOc1ccc(N2C(=O)/C(=C/c3ccc(N(CCC#N)CCC#N)cc3)N=C2c2cc([N+](=O)[O-])ccc2Cl)cc1 | – | 58.1 µM (inactive) | 27.4 µM (inactive) | 39.4 µM (inactive) | 42.4 µM (inactive) | 47.6 µM (inactive) | > 100 µM (inactive) | 73.1 µM (inactive) | 0.191 µM (active) | 40.8 µM (inactive) | 48.6 µM (inactive) | 21.3 µM (inactive) | 49.9 µM (inactive) | 26.7 µM (inactive) | 35.8 µM (inactive) | 17.6 µM (inactive)
7 | O=C(/C=C1/Nc2ccc([N+](=O)[O-])cc2NC1O)c1cccc([N+](=O)[O-])c1 (configuration not stated) | > 100 µM (inactive) | 35 µM (inactive) | > 100 µM (inactive) | 35.9 µM (inactive) | 34.8 µM (inactive) | 32.8 µM (inactive) | – | 83.9 µM (inactive) | 64.4 µM (inactive) | 36.6 µM (inactive) | > 100 µM (inactive) | 30.3 µM (inactive) | 66.5 µM (inactive) | 81.7 µM (inactive) | > 100 µM (inactive) | 12.1 µM (inactive)
8 | COC(=O)C1=C(C)N(NC(N)=O)C2(N)N(NC(N)=O)C(C)=C(C(=O)OC)C12C(=O)OC (configuration not stated) | – | > 100 µM (inactive) | > 100 µM (inactive) | > 100 µM (inactive) | > 100 µM (inactive) | > 100 µM (inactive) | > 100 µM (inactive) | > 100 µM (inactive) | > 100 µM (inactive) | > 100 µM (inactive) | > 100 µM (inactive) | > 100 µM (inactive) | > 100 µM (inactive) | > 100 µM (inactive) | > 100 µM (inactive) | > 100 µM (inactive)
9 | O=C(/C=C/c1ccc(OCCCCCCCCCCOc2ccc(/C=C/C(=O)c3ccc(Cl)cc3)cc2)cc1)c1ccc(Cl)cc1 | – | > 100 µM (inactive) | > 100 µM (inactive) | > 100 µM (inactive) | > 100 µM (inactive) | > 100 µM (inactive) | > 100 µM (inactive) | > 100 µM (inactive) | > 100 µM (inactive) | > 100 µM (inactive) | > 100 µM (inactive) | > 100 µM (inactive) | > 100 µM (inactive) | > 100 µM (inactive) | > 100 µM (inactive) | > 100 µM (inactive)
10 | Nc1nc2ncn(CC(O)CO)c2c(=S)[nH]1 (configuration not stated) | > 100 µM (inactive) | > 100 µM (inactive) | > 100 µM (inactive) | > 100 µM (inactive) | > 100 µM (inactive) | > 100 µM (inactive) | > 100 µM (inactive) | > 100 µM (inactive) | – | – | > 100 µM (inactive) | > 100 µM (inactive) | > 100 µM (inactive) | > 100 µM (inactive) | > 100 µM (inactive) | > 100 µM (inactive)
11 | O=C1c2ccccc2C(=O)c2nc(-c3ccccc3)c(-c3ccccc3)nc21 | – | > 100 µM (inactive) | > 100 µM (inactive) | > 100 µM (inactive) | 22.5 µM (inactive) | – | 10.8 µM (inactive) | 33 µM (inactive) | > 100 µM (inactive) | 17.6 µM (inactive) | 28.2 µM (inactive) | > 100 µM (inactive) | > 100 µM (inactive) | 2.74 µM (inactive) | 24.9 µM (inactive) | 17.7 µM (inactive)
12 | c1ccc(SC23C4C5C6C4C2C6C53)nc1 (configuration not stated) | > 19.6 µM (inactive) | > 67.9 µM (inactive) | > 100 µM (inactive) | 35.6 µM (inactive) | > 100 µM (inactive) | 11.5 µM (inactive) | > 100 µM (inactive) | > 100 µM (inactive) | > 100 µM (inactive) | > 100 µM (inactive) | > 63.7 µM (inactive) | > 100 µM (inactive) | > 100 µM (inactive) | > 100 µM (inactive) | > 100 µM (inactive) | > 100 µM (inactive)
13 | O=C(CC(=O)c1cccc2ccccc12)C(=O)NC1C2CC3CC(C2)CC1C3 (configuration not stated) | – | > 100 µM (inactive) | > 100 µM (inactive) | > 100 µM (inactive) | > 100 µM (inactive) | 77.1 µM (inactive) | – | > 100 µM (inactive) | > 100 µM (inactive) | > 100 µM (inactive) | > 100 µM (inactive) | 51.4 µM (inactive) | > 100 µM (inactive) | > 100 µM (inactive) | > 100 µM (inactive) | > 100 µM (inactive)
14 | CN(C)C(=S)Nc1nnc(Nc2ccccc2)s1 | > 100 µM (inactive) | – | > 100 µM (inactive) | > 100 µM (inactive) | > 100 µM (inactive) | > 100 µM (inactive) | > 100 µM (inactive) | > 100 µM (inactive) | > 100 µM (inactive) | > 100 µM (inactive) | > 100 µM (inactive) | > 100 µM (inactive) | > 100 µM (inactive) | – | > 100 µM (inactive) | > 100 µM (inactive)
15 | COC(=O)/C=C/c1cc(OC)c(OC)c(OC)c1 | > 100 µM (inactive) | > 100 µM (inactive) | > 100 µM (inactive) | 69.3 µM (inactive) | 46.1 µM (inactive) | > 100 µM (inactive) | > 100 µM (inactive) | > 100 µM (inactive) | > 100 µM (inactive) | > 100 µM (inactive) | – | – | > 100 µM (inactive) | 78.3 µM (inactive) | > 100 µM (inactive) | > 100 µM (inactive)
16 | COc1ccc(/C(=N\NC(=N)N)C(c2ccc(OC)cc2)C2OC(=O)c3ccccc32)cc1 (configuration not stated) | > 100 µM (inactive) | – | – | > 100 µM (inactive) | > 100 µM (inactive) | > 100 µM (inactive) | – | > 100 µM (inactive) | > 100 µM (inactive) | > 100 µM (inactive) | – | > 100 µM (inactive) | > 100 µM (inactive) | > 100 µM (inactive) | > 100 µM (inactive) | > 100 µM (inactive)
17 | C1=CC(N(c2ccccc2)C2C=CCCC2)CCC1 (configuration not stated) | – | > 100 µM (inactive) | > 100 µM (inactive) | – | – | 69.8 µM (inactive) | – | – | > 10 µM (inactive) | > 100 µM (inactive) | > 100 µM (inactive) | > 100 µM (inactive) | > 100 µM (inactive) | > 100 µM (inactive) | – | > 100 µM (inactive)
18 | O=C1Nc2ccccc2C12CCNC2Cc1ccccc1 (configuration not stated) | – | > 100 µM (inactive) | > 100 µM (inactive) | – | – | > 100 µM (inactive) | > 100 µM (inactive) | > 100 µM (inactive) | > 100 µM (inactive) | > 100 µM (inactive) | > 100 µM (inactive) | > 100 µM (inactive) | > 100 µM (inactive) | > 100 µM (inactive) | 56.6 µM (inactive) | > 100 µM (inactive)
19 | COc1ccc(C2S/C(=C\c3ccc([N+](=O)[O-])cc3)C(=O)N2NC(=O)Cc2ccccc2)cc1 (configuration not stated) | > 100 µM (inactive) | > 100 µM (inactive) | – | > 100 µM (inactive) | > 100 µM (inactive) | 92.9 µM (inactive) | > 100 µM (inactive) | > 100 µM (inactive) | 87.3 µM (inactive) | > 100 µM (inactive) | > 100 µM (inactive) | > 100 µM (inactive) | > 100 µM (inactive) | 85.9 µM (inactive) | – | > 100 µM (inactive)
